The results in this text go back to patent US5527815A, “Carboxymethylidenecycloheptimidazole derivatives, method of manufacturing the same and therapeutic agents containing these compounds” (Kotobuki Seiyaku Co., Ltd., priority 1993, dated 1996).

In assay [1] the test system is pressor responses to AII. In words: Inhibition of AII induced blood pressure increase in rats. It is filed as in vivo. The following applies: Rattus norvegicus, po, test compound 0.3 mg/kg orally, AII 30 ng/kg i.v., pressor responses measured at set times. The method, then:
[Inhibition of All induced Blood Pressure Increase]
Carotid artery and left femoral vein in rats were cannulated. Next day, the carotid catheter was connected to a pressure transducer for monitoring arterial blood pressure. After the measurement of AII (30 ng/kg, i.v.) pressor responses, test compounds (0.3 mg/kg) were administered orally.
Thereafter, the pressor responses to AII at set times were measured and the inhibition percent was calculated according to the comparison of the pressor responses.

Assay [2] deals with T1, Angiotensin II receptor (Oryctolagus cuniculus, UniProt P34976).
T1 construct: Rabbit thoracic aorta is isolated, contracted by angiotensin II; from tissue; host or cells: rabbit thoracic aorta
T1 sequence (P34976 1-359): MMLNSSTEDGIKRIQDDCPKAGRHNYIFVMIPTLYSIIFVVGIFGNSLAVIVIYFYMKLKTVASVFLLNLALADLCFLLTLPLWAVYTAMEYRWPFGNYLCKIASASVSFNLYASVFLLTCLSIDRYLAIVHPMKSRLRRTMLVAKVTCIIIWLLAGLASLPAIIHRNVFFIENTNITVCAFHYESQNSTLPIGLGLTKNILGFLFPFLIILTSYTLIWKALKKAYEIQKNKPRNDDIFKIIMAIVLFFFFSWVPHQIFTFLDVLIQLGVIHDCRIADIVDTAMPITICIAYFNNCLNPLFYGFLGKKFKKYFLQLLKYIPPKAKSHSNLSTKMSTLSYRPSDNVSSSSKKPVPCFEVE
Kind of assay: AII receptor antagonistic activity: inhibition of angiotensin II induced contraction of isolated rabbit thoracic aorta. It is filed as cell-based. The following applies: isolated rabbit thoracic aorta contracted by angiotensin II; Van Rossum method; values shown in parenthesis. The method, then:
[AII receptor antagonistic activity]
Angiotensin II receptor activity experiments are carried out according to P. C. Wong et al. (Hypertension 15, 823 (1990)).
Rabbit thoracic aorta is isolated, contracted by angiotensin II. The inhibition of contraction by the compound of formula (1) is expressed as pA2 from dose-response curve (Schild, Brit. J. Pharmacol. 14, 48 (1959)) or expressed as pD2 ' according to the method of J. M. Van Rossum (Arch. Intern. Pharmacodyn., 143, 229 (1963)).

As for `CCCc1nc2c(n1Cc1ccc(-c3ccccc3-c3nnn[nH]3)cc1)/C(=C/C(=O)OC(C)OC(=O)OC(C)C)CCCC2` (centres unmarked) [Compound 29, 2-Propyl-8-(1-isopropoxycarbonyloxy)ethoxycarbonylmethylidene-1-[(2'-(1H-tetrazole-5-yl)biphenyl-4-yl)methyl]-4,5,6,7-tetrahydro-cycloheptimidazole], in assay [1], the inhibition in vivo at 0.3 mg/kg is ≥ 70%. Also, the “pD2'” value in assay [2] turned out to be 8.18.

One may read the inhibition in vivo as the share of the control response that was lost under treatment. A higher inhibition in vivo goes with a strong effect.
